{"source": "patent EP0799174B1", "about": "“BIOCIDAL ALCOHOLS, THEIR PRODUCTION AND THEIR USE” (SCHÜLKE & MAYR GMBH, priority 1994, dated 1996)", "format_in_all_cases": "cell-based", "key": {"[1]": {"test_system": "Aspergillus niger ATCC 6275", "experiment": "MIC values, water-insoluble (covered area of plates, solutions in acetone)", "conditions": "solution in acetone, 100% means no inhibiting action", "source_text": "(§1) [table] The size of the covered areas of the plates is given in %; 100% means no inhibiting action."}, "[2]": {"test_system": "Candida albicans ATCC 10231", "experiment": "MIC values, water-insoluble (covered area of plates, solutions in acetone)", "conditions": "solution in acetone, 100% means no inhibiting action", "source_text": "as §1"}, "[3]": {"test_system": "Escherichia coli ATCC 11229", "experiment": "MIC values, water-insoluble (covered area of plates, solutions in acetone)", "conditions": "solution in acetone, 100% means no inhibiting action", "source_text": "as §1"}, "[4]": {"test_system": "Staphylococcus aureus ATCC 6538", "experiment": "MIC values, water-insoluble (covered area of plates, solutions in acetone)", "conditions": "solution in acetone, 100% means no inhibiting action", "source_text": "as §1"}, "[5]": {"test_system": "Candida albicans ATCC 10231", "experiment": "Plate diffusion test (agar diffusion test)", "conditions": "aromatic alcohol 1 part, dimethylformamide 6 parts", "source_text": "(§2) Standard formulation: • aromatic alcohol 1 part • dimethylformamide 6 parts [table] The diameters of the inhibition zones are given in mm."}, "[6]": {"test_system": "Escherichia coli ATCC 11229", "experiment": "Plate diffusion test (agar diffusion test)", "conditions": "aromatic alcohol 1 part, dimethylformamide 6 parts", "source_text": "as §2"}, "[7]": {"test_system": "Pseudomonas aeruginosa ATCC 15442", "experiment": "Plate diffusion test (agar diffusion test)", "conditions": "aromatic alcohol 1 part, dimethylformamide 6 parts", "source_text": "as §2"}, "[8]": {"test_system": "Staphylococcus aureus ATCC 6538", "experiment": "Plate diffusion test (agar diffusion test)", "conditions": "aromatic alcohol 1 part, dimethylformamide 6 parts", "source_text": "as §2"}, "P. vulgaris": {"test_system": "P. vulgaris", "source_text": "as §2"}}, "data": [{"smiles": "CCC(CO)Cc1ccccc1Cl", "note": "(stereo not shown) [Alcohol 9]", "values": [{"measurement": "size of the covered areas of the plates, A. niger", "setting": "[1]; concentration 0.25 % by wt.", "result": 100, "unit": "%"}, {"measurement": "size of the covered areas of the plates, A. niger", "setting": "[1]; concentration 0.50 % by wt.", "result": 90, "unit": "%"}, {"measurement": "size of the covered areas of the plates, A. niger", "setting": "[1]; concentration 1.00 % by wt.", "result": 20, "unit": "%"}, {"measurement": "size of the covered areas of the plates, C. albicans", "setting": "[2]; concentration 0.25 % by wt.", "result": 100, "unit": "%"}, {"measurement": "size of the covered areas of the plates, C. albicans", "setting": "[2]; concentration 0.50 % by wt.", "result": 100, "unit": "%"}, {"measurement": "size of the covered areas of the plates, C. albicans", "setting": "[2]; concentration 1.00 % by wt.", "result": 80, "unit": "%"}, {"measurement": "size of the covered areas of the plates, E. coli", "setting": "[3]; concentration 0.25 % by wt.", "result": 100, "unit": "%"}, {"measurement": "size of the covered areas of the plates, E. coli", "setting": "[3]; concentration 0.50 % by wt.", "result": 100, "unit": "%"}, {"measurement": "size of the covered areas of the plates, E. coli", "setting": "[3]; concentration 1.00 % by wt.", "result": 100, "unit": "%"}, {"measurement": "size of the covered areas of the plates, S. aureus", "setting": "[4]; concentration 0.25 % by wt.", "result": 100, "unit": "%"}, {"measurement": "size of the covered areas of the plates, S. aureus", "setting": "[4]; concentration 0.50 % by wt.", "result": 100, "unit": "%"}, {"measurement": "size of the covered areas of the plates, S. aureus", "setting": "[4]; concentration 1.00 % by wt.", "result": 80, "unit": "%"}, {"measurement": "diameters of the inhibition zones, C. albicans", "setting": "[5]", "result": 15, "unit": "mm"}, {"measurement": "diameters of the inhibition zones, E. coli", "setting": "[6]", "result": 11, "unit": "mm"}, {"measurement": "diameters of the inhibition zones, P. aeruginosa", "setting": "[7]", "result": 0, "unit": "mm"}, {"measurement": "diameters of the inhibition zones, S. aureus", "setting": "[8]", "result": 15, "unit": "mm"}, {"measurement": "diameters of the inhibition zones, P. vulgaris", "setting": "P. vulgaris", "result": 0, "unit": "mm"}]}, {"smiles": "CCC(CO)Cc1ccc(Cl)cc1", "note": "(stereo not shown) [Alcohol 10]", "values": [{"measurement": "size of the covered areas of the plates, A. niger", "setting": "[1]; concentration 0.125 % by wt.", "result": 100, "unit": "%"}, {"measurement": "size of the covered areas of the plates, A. niger", "setting": "[1]; concentration 0.25 % by wt.", "result": 90, "unit": "%"}, {"measurement": "size of the covered areas of the plates, A. niger", "setting": "[1]; concentration 0.50 % by wt.", "result": 70, "unit": "%"}, {"measurement": "size of the covered areas of the plates, A. niger", "setting": "[1]; concentration 1.00 % by wt.", "result": 10, "unit": "%"}, {"measurement": "size of the covered areas of the plates, C. albicans", "setting": "[2]; concentration 0.125 % by wt.", "result": 100, "unit": "%"}, {"measurement": "size of the covered areas of the plates, C. albicans", "setting": "[2]; concentration 0.25 % by wt.", "result": 100, "unit": "%"}, {"measurement": "size of the covered areas of the plates, C. albicans", "setting": "[2]; concentration 0.50 % by wt.", "result": 90, "unit": "%"}, {"measurement": "size of the covered areas of the plates, C. albicans", "setting": "[2]; concentration 1.00 % by wt.", "result": 10, "unit": "%"}, {"measurement": "size of the covered areas of the plates, E. coli", "setting": "[3]; concentration 0.125 % by wt.", "result": 100, "unit": "%"}, {"measurement": "size of the covered areas of the plates, E. coli", "setting": "[3]; concentration 0.25 % by wt.", "result": 100, "unit": "%"}, {"measurement": "size of the covered areas of the plates, E. coli", "setting": "[3]; concentration 0.50 % by wt.", "result": 100, "unit": "%"}, {"measurement": "size of the covered areas of the plates, E. coli", "setting": "[3]; concentration 1.00 % by wt.", "result": 100, "unit": "%"}, {"measurement": "size of the covered areas of the plates, S. aureus", "setting": "[4]; concentration 0.125 % by wt.", "result": 100, "unit": "%"}, {"measurement": "size of the covered areas of the plates, S. aureus", "setting": "[4]; concentration 0.25 % by wt.", "result": 100, "unit": "%"}, {"measurement": "size of the covered areas of the plates, S. aureus", "setting": "[4]; concentration 0.50 % by wt.", "result": 100, "unit": "%"}, {"measurement": "size of the covered areas of the plates, S. aureus", "setting": "[4]; concentration 1.00 % by wt.", "result": 10, "unit": "%"}, {"measurement": "diameters of the inhibition zones, C. albicans", "setting": "[5]", "result": 15, "unit": "mm"}, {"measurement": "diameters of the inhibition zones, E. coli", "setting": "[6]", "result": 11, "unit": "mm"}, {"measurement": "diameters of the inhibition zones, P. aeruginosa", "setting": "[7]", "result": 0, "unit": "mm"}, {"measurement": "diameters of the inhibition zones, S. aureus", "setting": "[8]", "result": 14, "unit": "mm"}, {"measurement": "diameters of the inhibition zones, P. vulgaris", "setting": "P. vulgaris", "result": 0, "unit": "mm"}]}, {"smiles": "CCC(CO)Cc1ccc(Cl)c(Cl)c1", "note": "(stereo not shown) [Alcohol 11]", "values": [{"measurement": "size of the covered areas of the plates, A. niger", "setting": "[1]; concentration 0.25 % by wt.", "result": 100, "unit": "%"}, {"measurement": "size of the covered areas of the plates, A. niger", "setting": "[1]; concentration 0.50 % by wt.", "result": 70, "unit": "%"}, {"measurement": "size of the covered areas of the plates, A. niger", "setting": "[1]; concentration 1.00 % by wt.", "result": 10, "unit": "%"}, {"measurement": "size of the covered areas of the plates, C. albicans", "setting": "[2]; concentration 0.25 % by wt.", "result": 100, "unit": "%"}, {"measurement": "size of the covered areas of the plates, C. albicans", "setting": "[2]; concentration 0.50 % by wt.", "result": 80, "unit": "%"}, {"measurement": "size of the covered areas of the plates, C. albicans", "setting": "[2]; concentration 1.00 % by wt.", "result": 10, "unit": "%"}, {"measurement": "size of the covered areas of the plates, E. coli", "setting": "[3]; concentration 0.25 % by wt.", "result": 100, "unit": "%"}, {"measurement": "size of the covered areas of the plates, E. coli", "setting": "[3]; concentration 0.50 % by wt.", "result": 100, "unit": "%"}, {"measurement": "size of the covered areas of the plates, E. coli", "setting": "[3]; concentration 1.00 % by wt.", "result": 90, "unit": "%"}, {"measurement": "size of the covered areas of the plates, S. aureus", "setting": "[4]; concentration 0.25 % by wt.", "result": 100, "unit": "%"}, {"measurement": "size of the covered areas of the plates, S. aureus", "setting": "[4]; concentration 0.50 % by wt.", "result": 90, "unit": "%"}, {"measurement": "size of the covered areas of the plates, S. aureus", "setting": "[4]; concentration 1.00 % by wt.", "result": 5, "unit": "%"}, {"measurement": "diameters of the inhibition zones, C. albicans", "setting": "[5]", "result": 13, "unit": "mm"}, {"measurement": "diameters of the inhibition zones, E. coli", "setting": "[6]", "result": 0, "unit": "mm"}, {"measurement": "diameters of the inhibition zones, P. aeruginosa", "setting": "[7]", "result": 0, "unit": "mm"}, {"measurement": "diameters of the inhibition zones, S. aureus", "setting": "[8]", "result": 17, "unit": "mm"}, {"measurement": "diameters of the inhibition zones, P. vulgaris", "setting": "P. vulgaris", "result": 0, "unit": "mm"}]}, {"smiles": "CCC(CO)Cc1ccccc1C", "note": "(stereo not shown) [Alcohol 12]", "values": [{"measurement": "size of the covered areas of the plates, A. niger", "setting": "[1]; concentration 0.50 % by wt.", "result": 100, "unit": "%"}, {"measurement": "size of the covered areas of the plates, A. niger", "setting": "[1]; concentration 1.00 % by wt.", "result": 80, "unit": "%"}, {"measurement": "size of the covered areas of the plates, C. albicans", "setting": "[2]; concentration 0.50 % by wt.", "result": 100, "unit": "%"}, {"measurement": "size of the covered areas of the plates, C. albicans", "setting": "[2]; concentration 1.00 % by wt.", "result": 80, "unit": "%"}, {"measurement": "size of the covered areas of the plates, E. coli", "setting": "[3]; concentration 0.50 % by wt.", "result": 100, "unit": "%"}, {"measurement": "size of the covered areas of the plates, E. coli", "setting": "[3]; concentration 1.00 % by wt.", "result": 100, "unit": "%"}, {"measurement": "size of the covered areas of the plates, S. aureus", "setting": "[4]; concentration 0.50 % by wt.", "result": 100, "unit": "%"}, {"measurement": "size of the covered areas of the plates, S. aureus", "setting": "[4]; concentration 1.00 % by wt.", "result": 90, "unit": "%"}, {"measurement": "diameters of the inhibition zones, C. albicans", "setting": "[5]", "result": 22, "unit": "mm"}, {"measurement": "diameters of the inhibition zones, E. coli", "setting": "[6]", "result": 17, "unit": "mm"}, {"measurement": "diameters of the inhibition zones, P. aeruginosa", "setting": "[7]", "result": 15, "unit": "mm"}, {"measurement": "diameters of the inhibition zones, S. aureus", "setting": "[8]", "result": 20, "unit": "mm"}, {"measurement": "diameters of the inhibition zones, P. vulgaris", "setting": "P. vulgaris", "result": 13, "unit": "mm"}]}, {"smiles": "CCC(CO)Cc1ccc(OC)c(OC)c1", "note": "(stereo not shown) [Alcohol 16]", "values": [{"measurement": "diameters of the inhibition zones, C. albicans", "setting": "[5]", "result": 28, "unit": "mm"}, {"measurement": "diameters of the inhibition zones, E. coli", "setting": "[6]", "result": 17, "unit": "mm"}, {"measurement": "diameters of the inhibition zones, P. aeruginosa", "setting": "[7]", "result": 18, "unit": "mm"}, {"measurement": "diameters of the inhibition zones, S. aureus", "setting": "[8]", "result": 18, "unit": "mm"}, {"measurement": "diameters of the inhibition zones, P. vulgaris", "setting": "P. vulgaris", "result": 17, "unit": "mm"}]}]}
